Results reported in patent publication US9181288B2, “Azepane derivatives and methods of treating hepatitis B infections” (Novira Therapeutics, Inc., priority 2014, dated 2015).

What was measured:
[1] = target: HBV C150Bo capsid protein (mutant C150 HBV core protein labeled with BODIPY-FL) (Hepatitis B virus genotype D subtype adw, UniProt P03147, C107A/C48A/C61A/R150C); assay: HBV assembly assay (fluorescence quenching in vitro capsid assembly); assay type: biochemical; conditions: at about 10 μM; 50 mM Hepes pH 7.5, 150 mM NaCl, 1 hour room temperature
Chain of HBV C150Bo capsid protein (mutant C150 HBV core protein labeled with BODIPY-FL) (P03147 1-150 C48A/C61A/C107A/R150C): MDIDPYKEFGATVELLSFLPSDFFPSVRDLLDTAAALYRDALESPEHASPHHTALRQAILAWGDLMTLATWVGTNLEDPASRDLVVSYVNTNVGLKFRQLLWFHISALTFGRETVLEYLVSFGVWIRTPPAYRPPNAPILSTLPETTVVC

[2] = test system: HBV replication in HepG2-2.2.15 cells; assay: Inhibition of HBV replication dot-blot assay; assay type: cell-based; conditions: Hepatitis B virus, 144 h, six days, reduction in HBV DNA levels
Experimental: Compounds active in the HBV assembly assay are tested for their activity and toxicity in cellular assay. In the first anti-viral assay, the ability of compounds to inhibit HBV replication in an HBV-producing hepatoma cell line using the dot-blot method is evaluated.
Briefly, confluent monolayers of HepG2-2.2.15 cells are incubated with complete medium containing various concentrations of a test compound. Three days later, the culture medium is replaced with fresh medium containing the appropriately diluted test compound. Six days following the initial administration of the test compound, the cell culture supernatant is collected, and cell lysis is performed. The samples are applied onto Nylos membranes and DNA is immobilized to the membrane by UV cross-linking. After pre-hybridization, the HBV probe is added and the hybridization is performed overnight. The membranes are exposed to the Kodak films; antiviral activity is calculated from the reduction in HBV DNA levels (EC50). The EC50 for antiviral activity is calculated from the dose response curves of active compounds. Assay performance over time is monitored by the use of the standard positive control compounds ETV, BAY 41-4109, and HAP-1.
Selected compounds were tested for their activity and toxicity in cellular assay. In the first anti-viral assay, the ability of compounds to inhibit HBV replication in an HBV-producing hepatoma cell line using the dot-blot method was evaluated.
Confluent monolayers of HepG2-2.2.15 cells were incubated with complete medium containing various concentrations of a test compound. Three days later, the culture medium was replaced with fresh medium containing the appropriately diluted test compound. Six days following the initial administration of the test compound, the cell culture supernatant was collected, and cell lysis was performed. The samples were applied onto Nylos membranes and DNA was immobilized to the membrane by UV cross-linking. After pre-hybridization, the HBV probe was added and the hybridization was performed overnight. The membranes were exposed to the Kodak films; antiviral activity was calculated from the reduction in HBV DNA levels (EC50). The EC50 for antiviral activity was calculated from the dose response curves of active compounds. Assay performance over time was monitored by the use of the standard positive control compounds ETV, BAY 41-4109, and HAP-1.

SMILES	Activity (HBV assembly assay) [1]	inhibition at 10 µM [2]
CC(=O)O[C@@H]1CC[C@H](O)CN(S(=O)(=O)c2cc(C(=O)Nc3cc(F)c(F)c(F)c3)ccc2F)C1 [Compound 2618_D2]	+ (‘+’ indicates >50% activity at about 10 μM)	> 50%
O=C(Nc1cc(F)c(F)c(F)c1)c1ccc(CF)c(S(=O)(=O)N2CCOCC(O)(C3CC3)C2)c1 (stereo not drawn) [Compound 2505]	+ (‘+’ indicates >50% activity at about 10 μM)	> 50%
O=C(Nc1ccc(F)c(Cl)c1)c1ccc(F)c(S(=O)(=O)N2CCC[C@H](O)CC2)c1 [Compound 1766_E2]	+ (‘+’ indicates >50% activity at about 10 μM)	> 50%
O=C(Nc1cc(F)c(F)c(F)c1)c1ccc(CF)c(S(=O)(=O)N2CCOCC(O)C2)c1 (stereo not drawn) [Compound 1981]	+ (‘+’ indicates >50% activity at about 10 μM)	> 50%
O=C(Nc1ccc(F)c(Cl)c1)c1ccc(CO)c(S(=O)(=O)N2CCCCC(F)C2)c1 (stereo not drawn) [Compound 1768]	+ (‘+’ indicates >50% activity at about 10 μM)	> 50%
O=C(Nc1cc(F)c(F)c(F)c1)c1ccc(F)c(S(=O)(=O)N2CCOCC(O)(C3CC3)C2)c1 (stereo not drawn) [Compound 1987]	+ (‘+’ indicates >50% activity at about 10 μM)	> 50%
O=C(Nc1ccc(F)c(Cl)c1)c1cc(S(=O)(=O)N2CCCC(O)CC2)c2[nH]cnc2c1 (stereo not drawn) [Compound 2033]	+ (‘+’ indicates >50% activity at about 10 μM)	> 50%
O=C(Nc1cc(F)c(F)c(F)c1)c1ccc(CF)c(S(=O)(=O)N2CCCCCC2)c1 [Compound 2002]	+ (‘+’ indicates >50% activity at about 10 μM)	> 50%
O=C(Nc1ccc(F)c(Cl)c1)c1ccc(F)c(S(=O)(=O)N2CCCC(F)CC2)c1 (stereo not drawn) [Compound 2123]	+ (‘+’ indicates >50% activity at about 10 μM)	> 50%
O=C(Nc1cc(F)c(F)c(F)c1)c1ccc(F)c(S(=O)(=O)N2C[C@H](O)CC[C@H](O)C2)c1 [Compound 2617_D2]	+ (‘+’ indicates >50% activity at about 10 μM)	> 50%
CC1(O)CCCN(S(=O)(=O)c2cc(C(=O)Nc3cc(F)c(F)c(F)c3)ccc2F)CC1 (stereo not drawn) [Compound 1944]	+ (‘+’ indicates >50% activity at about 10 μM)	> 50%
O=C(Nc1ccc(F)c(F)c1)c1ccc(F)c(S(=O)(=O)N2CC(O)CC3CC3C2)c1 (stereo not drawn) [Compound 2547]	+ (‘+’ indicates >50% activity at about 10 μM)	> 50%
CC(=O)OC1CCCCN(S(=O)(=O)c2cc(C(=O)Nc3cc(F)c(F)c(F)c3)ccc2F)C1 (stereo not drawn) [Compound 2024]	+ (‘+’ indicates >50% activity at about 10 μM)	> 50%
O=C(Nc1cc(F)c(F)c(F)c1)c1ccc(F)c(S(=O)(=O)N2CC(O)CCC(F)C2)c1 (stereo not drawn) [Compound 1826_D2]	+ (‘+’ indicates >50% activity at about 10 μM)	> 50%
CC1(O)CCCCN(S(=O)(=O)c2cc(C(=O)Nc3ccc(F)c(Cl)c3)ccc2F)C1 (stereo not drawn) [Compound 1890]	+ (‘+’ indicates >50% activity at about 10 μM)	> 50%
CC1(O)CCCN(S(=O)(=O)c2cc(C(=O)Nc3cc(F)c(F)c(F)c3)ccc2CF)CC1 (stereo not drawn) [Compound 1829-2]	+ (‘+’ indicates >50% activity at about 10 μM)	> 50%
O=C(Nc1ccc(F)c(Cl)c1)c1ccc(F)c(S(=O)(=O)N2CCOCC(O)(C3CC3)C2)c1 (stereo not drawn) [Compound 1989]	+ (‘+’ indicates >50% activity at about 10 μM)	> 50%
O=C(Nc1ccc(F)c(F)c1)c1ccc(F)c(S(=O)(=O)N2CCOCC(O)C2)c1 (stereo not drawn) [Compound 1894]	+ (‘+’ indicates >50% activity at about 10 μM)	> 50%
O=C(Nc1cc(F)c(F)c(F)c1)c1ccc(F)c(S(=O)(=O)N2CCC[C@@H](O)C(F)C2)c1 (stereo partly drawn) [Compound 1829_D1]	+ (‘+’ indicates >50% activity at about 10 μM)	> 50%
O=C(Nc1ccc(F)c(Cl)c1)c1ccc(F)c(S(=O)(=O)N2CCCC[C@@H](O)C2)c1 [Compound 1763_E1]	+ (‘+’ indicates >50% activity at about 10 μM)	> 50%
O=C(Nc1ccc(F)c(F)c1)c1ccc(F)c(S(=O)(=O)N2CCCC(F)[C@H](O)C2)c1 (stereo partly drawn) [Compound 1821_D2]	+ (‘+’ indicates >50% activity at about 10 μM)	> 50%
COc1ccc(C(=O)Nc2ccc(F)c(Cl)c2)cc1S(=O)(=O)N1CCCC(O)C(F)C1 (stereo not drawn) [Compound 2114_D1]	+ (‘+’ indicates >50% activity at about 10 μM)	> 50%
O=C(Nc1ccc(F)c(Cl)c1)c1cccc(S(=O)(=O)N2CCOCC(O)C2)c1 (stereo not drawn) [Compound 1977]	+ (‘+’ indicates >50% activity at about 10 μM)	> 50%
O=C(Nc1ccc(F)c(F)c1)c1ccc(CF)c(S(=O)(=O)N2CCCC(O)CC2)c1 (stereo not drawn) [Compound 1917]	+ (‘+’ indicates >50% activity at about 10 μM)	> 50%
O=C(Nc1ccc(F)c(Cl)c1)c1ccc(CF)c(S(=O)(=O)N2CCOCC(O)C2)c1 (stereo not drawn) [Compound 1983]	+ (‘+’ indicates >50% activity at about 10 μM)	> 50%
Cc1ccc(C(=O)Nc2cc(F)c(F)c(F)c2)cc1S(=O)(=O)N1CCCCC(O)C1 (stereo not drawn) [Compound 1915]	+ (‘+’ indicates >50% activity at about 10 μM)	> 50%
Cc1ccc(C(=O)Nc2ccc(F)c(Cl)c2)cc1S(=O)(=O)N1CCCC(O)CC1 (stereo not drawn) [Compound 1910]	+ (‘+’ indicates >50% activity at about 10 μM)	> 50%
COc1ccc(C(=O)Nc2ccc(F)c(Cl)c2)cc1S(=O)(=O)N1CCOCC(O)C1 (stereo not drawn) [Compound 1980]	+ (‘+’ indicates >50% activity at about 10 μM)	> 50%
O=C(Nc1ccc(F)c(Cl)c1)c1ccc(F)c(S(=O)(=O)N2CCCC(F)[C@@H](O)C2)c1 (stereo partly drawn) [Compound 1822_D1]	+ (‘+’ indicates >50% activity at about 10 μM)	> 50%
O=C(Nc1ccc(F)c(Cl)c1)c1ccc(CF)c(S(=O)(=O)N2CCCC(O)CC2)c1 (stereo not drawn) [Compound 1819]	+ (‘+’ indicates >50% activity at about 10 μM)	> 50%
